# Tested on: hypertensive subjects
# Assay: 24-hour ambulatory blood pressure monitoring (ABPM), incl. nighttime dip
# Assay type: in vivo, human
# Conditions: Part 1
# Protocol: Ambulatory blood pressure monitoring was accomplished with an ambulatory blood pressure monitoring device that consists of a blood pressure cuff worn on a subject's arm attached to a small recording device that is typically attached to the subject's belt or waistband.
# The ABPM device is worn for 24 hours. Throughout that period, the device records the subject's blood pressure at regular intervals, during the subject's routine daily activities and while they are sleeping. The ABPM thus provides a complete record of the subject's blood pressure over a 24-hour period.
# 24-hour ABPM was measured in the clinic at baseline and Study Week 7. If, for any reason, the ABPM procedure was deemed a failure at the end of Study Week 7, it may have been repeated at Study Week 8 and therefore no imputation was employed regardless of use of rescue medications. Additionally, ABPM was also collected at the end of Study Week 4 in Part 2. If a repeat test was performed, it supersedes the original test results for that visit.
# Specific derived variables based on ABPM measurements include mean 24-hour, mean Daytime, and mean Nighttime of SBP, DBP, and heart rate.
# Change from baseline to Week 7 in 24-hour mean SBP (and DBP) based on ABPM will be analyzed using an ANCOVA with a term for treatment group and a baseline mean 24-hour value as a covariate.
# The nighttime dip is defined as
# 100%×(mean daytime SBP−mean nighttime SBP)/mean daytime SBP
# It is expressed as a percentage and is summarized by treatment group and visit using descriptive statistics. In addition, the number and percentage of subjects with nighttime dip in each of the dipper categories (Bloomfield & Park, 2015) is presented by treatment group and visit. The categories are: • (a) <10% • (b) 10-20% inclusive • (c) >20%
# Secondary endpoints of this study were: • (a) Change in 24-hour ambulatory blood pressure monitoring (ABPM) parameters (systolic and diastolic) from baseline to the end of Study Week 7. • (b) Change in office-measured SBP from baseline to the end of Study Weeks 1, 2, 3, 4, 5, 6, and 7. • (c) Change in office-measured diastolic blood pressure (DBP) from baseline to the end of Study Weeks 1, 2, 3, 4, 5, 6, 7, and 8. • (d) Proportion of subjects who achieve office-measured BP of ≤130/80 mm Hg by the end of Study Week 8.
# [1] = 25 mg BID, End of Treatment, FAS post-hoc
structure (smiles),measurement,setting,value
CC(=O)N[C@H]1CC[C@H](NC(=O)CN2CCN(c3nncc(-c4ccc(C)cc4)n3)CC2)CC1 [Compound A HBr],"Daytime Mean SBP (ABPM), Mean (SD)","12.5 mg QD, EoT, FAS",141.13 (15.62) mmHg
same,"Nighttime Mean DBP (ABPM), Mean (SD)","12.5 mg QD, EoT, FAS",74.29 (9.59) mmHg
same,"Nighttime Mean SBP (ABPM), Mean (SD)","12.5 mg QD, EoT, FAS",132.00 (18.11) mmHg
same,Subjects with nighttime dip 10-20% in 24-hour systolic ABPM,"12.5 mg QD, EoT, FAS",5 (35.7) n (%)
same,Subjects with nighttime dip <10% in 24-hour systolic ABPM,"12.5 mg QD, EoT, FAS",9 (64.3) n (%)
same,Subjects with nighttime dip >20% in 24-hour systolic ABPM,"12.5 mg QD, EoT, FAS",0 n (%)
same,"24-hr Mean DBP (ABPM) CFB to EoT, Mean (SD)","12.5 mg QD, FAS",−2.27 (8.35) mmHg
same,"24-hr Mean MAP (ABPM) CFB to EoT, Mean (SD)","12.5 mg QD, FAS",−3.73 (12.21) mmHg
same,"24-hr Mean SBP (ABPM) CFB to EoT, Mean (SD)","12.5 mg QD, FAS",−5.20 (16.55) mmHg
same,"Daytime Mean DBP (ABPM) CFB to EoT, Mean (SD)","12.5 mg QD, FAS",−2.60 (8.43) mmHg
same,"Daytime Mean SBP (ABPM) CFB to EoT, Mean (SD)","12.5 mg QD, FAS",−4.80 (15.10) mmHg
same,"Nighttime Mean DBP (ABPM) CFB to EoT, Mean (SD)","12.5 mg QD, FAS",−3.21 (9.55) mmHg
same,"Nighttime Mean SBP (ABPM) CFB to EoT, Mean (SD)","12.5 mg QD, FAS",−5.43 (20.36) mmHg
same,"LSM Δ with Placebo, 24-hr DBP (ABPM, ANCOVA)",[1],−5.13 mmHg
same,"LSM Δ with Placebo, 24-hr Mean MAP (ABPM, ANCOVA)",[1],−6.68 mmHg
same,"LSM Δ with Placebo, 24-hr SBP (ABPM, ANCOVA)",[1],−8.04 mmHg
same,"LSM Δ with Placebo, Daytime Mean DBP (ABPM, ANCOVA)",[1],−5.64 mmHg
same,"LSM Δ with Placebo, Daytime Mean SBP (ABPM, ANCOVA)",[1],−8.76 mmHg
same,"LSM Δ with Placebo, Mean Central DBP (ABPM, ANCOVA)",[1],−7.36 mmHg
same,"LSM Δ with Placebo, Mean Central Mean BP (ABPM, ANCOVA)",[1],−8.87 mmHg
same,"LSM Δ with Placebo, Mean Central SBP (ABPM, ANCOVA)",[1],−10.19 mmHg
same,"LSM Δ with Placebo, Nighttime Mean DBP (ABPM, ANCOVA)",[1],−3.28 mmHg
same,"LSM Δ with Placebo, Nighttime Mean SBP (ABPM, ANCOVA)",[1],−4.66 mmHg
same,"24-hr Mean DBP (ABPM), Mean (SD)","25 mg BID, EoT, FAS",76.50 (10.59) mmHg
same,"24-hr Mean MAP (ABPM), Mean (SD)","25 mg BID, EoT, FAS",103.10 (10.92) mmHg
same,"24-hr Mean SBP (ABPM), Mean (SD)","25 mg BID, EoT, FAS",129.69 (12.57) mmHg
same,"Daytime Mean DBP (ABPM), Mean (SD)","25 mg BID, EoT, FAS",79.04 (10.41) mmHg
same,"Daytime Mean SBP (ABPM), Mean (SD)","25 mg BID, EoT, FAS",132.58 (13.62) mmHg
same,"Nighttime Mean DBP (ABPM), Mean (SD)","25 mg BID, EoT, FAS",71.38 (11.94) mmHg
same,"Nighttime Mean SBP (ABPM), Mean (SD)","25 mg BID, EoT, FAS",123.92 (12.17) mmHg
same,Subjects with nighttime dip 10-20% in 24-hour systolic ABPM,"25 mg BID, EoT, FAS",4 (16.7) n (%)
same,Subjects with nighttime dip <10% in 24-hour systolic ABPM,"25 mg BID, EoT, FAS",19 (79.2) n (%)
same,Subjects with nighttime dip >20% in 24-hour systolic ABPM,"25 mg BID, EoT, FAS",1 (4.2) n (%)
same,"24-hr Mean DBP (ABPM) CFB to EoT, Mean (SD)","25 mg BID, FAS",−6.12 (9.77) mmHg
same,"24-hr Mean MAP (ABPM) CFB to EoT, Mean (SD)","25 mg BID, FAS",−7.42 (12.49) mmHg
same,"24-hr Mean SBP (ABPM) CFB to EoT, Mean (SD)","25 mg BID, FAS",−8.73 (15.67) mmHg
same,"Daytime Mean DBP (ABPM) CFB to EoT, Mean (SD)","25 mg BID, FAS",−6.23 (10.43) mmHg
same,"Daytime Mean SBP (ABPM) CFB to EoT, Mean (SD)","25 mg BID, FAS",−9.08 (17.41) mmHg
same,"Nighttime Mean DBP (ABPM) CFB to EoT, Mean (SD)","25 mg BID, FAS",−4.13 (10.86) mmHg
same,"Nighttime Mean SBP (ABPM) CFB to EoT, Mean (SD)","25 mg BID, FAS",−5.96 (15.37) mmHg
same,"LSM Δ with Placebo, 24-hr DBP (ABPM, ANCOVA)","50 mg QD, End of Treatment, FAS post-hoc",−2.74 mmHg
